Assay results reported in PubChem BioAssay (NCI).
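In this assay, cells in 96-well plates receive the compound at five concentrations for 48 hours. Endpoints are linearly interpolated between the surrounding concentrations. GI50 = concentration required for 50% inhibition of growth. TGI denotes the concentration required for complete inhibition of growth.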

Key:
Assay in all cases: growth of human tumour cells (NCI), 48 h
786-0 renal = tested on: 786-0 renal
A498 renal = tested on: A498 renal
A549 NSCLC = tested on: A549 NSCLC
ACHN renal = tested on: ACHN renal
BT-549 breast = tested on: BT-549 breast
CAKI-1 renal = tested on: CAKI-1 renal
CCRF-CEM leukemia = tested on: CCRF-CEM leukemia
COLO 205 colon = tested on: COLO 205 colon
DU-145 prostate = tested on: DU-145 prostate
EKVX NSCLC = tested on: EKVX NSCLC
HCC-2998 colon = tested on: HCC-2998 colon
HCT-116 colon = tested on: HCT-116 colon
HCT-15 colon = tested on: HCT-15 colon
HL-60(TB) leukemia = tested on: HL-60(TB) leukemia
HOP-62 NSCLC = tested on: HOP-62 NSCLC
HOP-92 NSCLC = tested on: HOP-92 NSCLC
HS 578T breast = tested on: HS 578T breast
HT29 colon = tested on: HT29 colon
IGROV1 ovarian = tested on: IGROV1 ovarian
K-562 leukemia = tested on: K-562 leukemia
KM12 colon = tested on: KM12 colon
LOX IMVI melanoma = tested on: LOX IMVI melanoma
M14 melanoma = tested on: M14 melanoma
MALME-3M melanoma = tested on: MALME-3M melanoma
MCF7 breast = tested on: MCF7 breast
MDA-MB-231 breast = tested on: MDA-MB-231 breast
MDA-MB-435 = tested on: MDA-MB-435
MOLT-4 leukemia = tested on: MOLT-4 leukemia
NCI-H226 lung = tested on: NCI-H226 lung
NCI-H23 lung = tested on: NCI-H23 lung
NCI-H460 lung = tested on: NCI-H460 lung
NCI-H522 lung = tested on: NCI-H522 lung
NCI/ADR-RES ovarian = tested on: NCI/ADR-RES ovarian
OVCAR-3 ovarian = tested on: OVCAR-3 ovarian
OVCAR-4 ovarian = tested on: OVCAR-4 ovarian
OVCAR-5 ovarian = tested on: OVCAR-5 ovarian
OVCAR-8 ovarian = tested on: OVCAR-8 ovarian
PC-3 prostate = tested on: PC-3 prostate
RPMI-8226 leukemia = tested on: RPMI-8226 leukemia
RXF 393 renal = tested on: RXF 393 renal
SF-268 CNS = tested on: SF-268 CNS
SF-295 CNS = tested on: SF-295 CNS
SF-539 CNS = tested on: SF-539 CNS
SK-MEL-2 melanoma = tested on: SK-MEL-2 melanoma
SK-MEL-28 melanoma = tested on: SK-MEL-28 melanoma
SK-MEL-5 melanoma = tested on: SK-MEL-5 melanoma
SK-OV-3 ovarian = tested on: SK-OV-3 ovarian
SN12C renal = tested on: SN12C renal
SNB-19 CNS = tested on: SNB-19 CNS
SNB-75 CNS = tested on: SNB-75 CNS
SR leukemia = tested on: SR leukemia
SW-620 colon = tested on: SW-620 colon
T-47D breast = tested on: T-47D breast
TK-10 renal = tested on: TK-10 renal
U251 CNS = tested on: U251 CNS
UACC-257 melanoma = tested on: UACC-257 melanoma
UACC-62 melanoma = tested on: UACC-62 melanoma
UO-31 renal = tested on: UO-31 renal

## CCO/C=N/C1=C(C#N)C(c2ccc(F)cc2)c2sc3c(C)cccc3c2O1 (stereo not given)
786-0 renal
  GI50: 0.614 µM
  TGI: 12.9 µM
A498 renal
  GI50: 0.261 µM
  TGI: 1.48 µM
A549 NSCLC
  GI50: 0.458 µM
  TGI: 18.7 µM
ACHN renal
  GI50: 0.616 µM
  TGI: 14.6 µM
BT-549 breast
  GI50: 0.751 µM
  TGI: 5.63 µM
CAKI-1 renal
  GI50: 0.386 µM
  TGI: 17.2 µM
CCRF-CEM leukemia
  GI50: 0.359 µM
  TGI: 21.3 µM
COLO 205 colon
  GI50: 0.401 µM
  TGI: 2.25 µM
DU-145 prostate
  GI50: 0.434 µM
  TGI: 14.2 µM
EKVX NSCLC
  GI50: 0.383 µM
  TGI: 18.3 µM
HCC-2998 colon
  GI50: 0.421 µM
  TGI: 12.9 µM
HCT-116 colon
  GI50: 0.375 µM
  TGI: 10.4 µM
HCT-15 colon
  GI50: 0.336 µM
  TGI: 11.5 µM
HL-60(TB) leukemia
  GI50: 0.34 µM
  TGI: 12.9 µM
HOP-62 NSCLC
  GI50: 0.423 µM
  TGI: 15.8 µM
HOP-92 NSCLC
  GI50: 0.624 µM
  TGI: 8 µM
HS 578T breast
  GI50: 0.325 µM
  TGI: 14.8 µM
HT29 colon
  GI50: 0.389 µM
  TGI: 12.6 µM
IGROV1 ovarian
  GI50: 0.379 µM
  TGI: 14.9 µM
K-562 leukemia
  GI50: 0.281 µM
  TGI: > 62.1 µM
KM12 colon
  GI50: 0.389 µM
  TGI: 14.7 µM
LOX IMVI melanoma
  GI50: 0.626 µM
  TGI: 14.1 µM
M14 melanoma
  GI50: 0.316 µM
  TGI: 12.2 µM
MALME-3M melanoma
  GI50: 10.6 µM
  TGI: 24.8 µM
MCF7 breast
  GI50: 0.271 µM
  TGI: 13.1 µM
MDA-MB-231 breast
  GI50: 0.531 µM
  TGI: 17.6 µM
MDA-MB-435
  GI50: 0.178 µM
  TGI: 0.609 µM
MOLT-4 leukemia
  GI50: 0.56 µM
  TGI: 32.2 µM
NCI-H226 lung
  GI50: 1.29 µM
  TGI: 12.1 µM
NCI-H23 lung
  GI50: 0.517 µM
  TGI: 14.7 µM
NCI-H460 lung
  GI50: 0.367 µM
  TGI: 11.1 µM
NCI-H522 lung
  GI50: 0.214 µM
  TGI: 11.7 µM
NCI/ADR-RES ovarian
  GI50: 0.22 µM
  TGI: 12.7 µM
OVCAR-3 ovarian
  GI50: 0.379 µM
  TGI: 11.9 µM
OVCAR-4 ovarian
  GI50: 1.7 µM
  TGI: 24.8 µM
OVCAR-5 ovarian
  GI50: 0.574 µM
  TGI: 16.4 µM
OVCAR-8 ovarian
  GI50: 0.499 µM
  TGI: 20.3 µM
PC-3 prostate
  GI50: 0.386 µM
  TGI: 14.8 µM
RPMI-8226 leukemia
  GI50: 0.371 µM
  TGI: 11 µM
RXF 393 renal
  GI50: 0.175 µM
  TGI: 0.55 µM
SF-268 CNS
  GI50: 1.74 µM
  TGI: 17.3 µM
SF-295 CNS
  GI50: 0.25 µM
  TGI: 2.8 µM
SF-539 CNS
  GI50: 0.243 µM
  TGI: 1.54 µM
SK-MEL-2 melanoma
  GI50: 0.726 µM
  TGI: 20.7 µM
SK-MEL-28 melanoma
  GI50: 1.4 µM
  TGI: 20.6 µM
SK-MEL-5 melanoma
  GI50: 0.487 µM
  TGI: 2.53 µM
SK-OV-3 ovarian
  GI50: 0.834 µM
  TGI: 25.5 µM
SN12C renal
  GI50: 0.534 µM
  TGI: 13.9 µM
SNB-19 CNS
  GI50: 0.452 µM
  TGI: 16.5 µM
SNB-75 CNS
  GI50: 0.114 µM
  TGI: 2.64 µM
SR leukemia
  GI50: 0.524 µM
  TGI: 60.1 µM
SW-620 colon
  GI50: 0.401 µM
  TGI: 15.8 µM
T-47D breast
  GI50: 0.818 µM
  TGI: 66.9 µM
TK-10 renal
  GI50: 11.8 µM
  TGI: 27.5 µM
U251 CNS
  GI50: 0.473 µM
  TGI: 15.5 µM
UACC-257 melanoma
  GI50: 12.9 µM
  TGI: 35.6 µM
UACC-62 melanoma
  GI50: 0.404 µM
  TGI: 19.5 µM
UO-31 renal
  GI50: 0.572 µM
  TGI: 15.9 µM

## Cc1cc2c(-c3ccc(NC(=O)[C@H](N)CC(C)(C)C)cc3C)ccnc2[nH]1
786-0 renal
  GI50: 1.81 µM
  TGI: 3.4 µM
A498 renal
  GI50: 2.2 µM
  TGI: 12.8 µM
A549 NSCLC
  GI50: 10.3 µM
  TGI: 26 µM
ACHN renal
  GI50: 10.5 µM
  TGI: 22.3 µM
BT-549 breast
  GI50: 6.31 µM
  TGI: 19.5 µM
CAKI-1 renal
  GI50: 4.5 µM
  TGI: 16.3 µM
CCRF-CEM leukemia
  GI50: 5.41 µM
  TGI: 28.2 µM
COLO 205 colon
  GI50: 1.82 µM
  TGI: 3.54 µM
DU-145 prostate
  GI50: 12.4 µM
  TGI: 25.5 µM
EKVX NSCLC
  GI50: 11.2 µM
  TGI: 28.3 µM
HCC-2998 colon
  GI50: 5.81 µM
  TGI: 20.9 µM
HCT-116 colon
  GI50: 4.85 µM
  TGI: 16.5 µM
HCT-15 colon
  GI50: 4.52 µM
  TGI: 21.8 µM
HL-60(TB) leukemia
  GI50: 2.89 µM
  TGI: 14 µM
HOP-62 NSCLC
  GI50: 11.4 µM
  TGI: 24.6 µM
HOP-92 NSCLC
  GI50: 2.67 µM
  TGI: 10.3 µM
HS 578T breast
  GI50: 1.42 µM
  TGI: 12.3 µM
HT29 colon
  GI50: 2.72 µM
  TGI: 8.84 µM
IGROV1 ovarian
  GI50: 12.2 µM
  TGI: 26.1 µM
K-562 leukemia
  GI50: 2.82 µM
  TGI: 41.2 µM
KM12 colon
  GI50: 6.1 µM
  TGI: 21.2 µM
LOX IMVI melanoma
  GI50: 5.9 µM
  TGI: 25.9 µM
M14 melanoma
  GI50: 11 µM
  TGI: 23.5 µM
MALME-3M melanoma
  GI50: 10.2 µM
  TGI: 22.8 µM
MCF7 breast
  GI50: 5.54 µM
  TGI: 30.5 µM
MDA-MB-231 breast
  GI50: 7.43 µM
  TGI: 20.7 µM
MDA-MB-435
  GI50: 7 µM
  TGI: 19.9 µM
MOLT-4 leukemia
  GI50: 4.69 µM
  TGI: 24 µM
NCI-H226 lung
  GI50: 10.7 µM
  TGI: 27.2 µM
NCI-H460 lung
  GI50: 5.7 µM
  TGI: 19 µM
NCI-H522 lung
  GI50: 13 µM
  TGI: 26.3 µM
NCI/ADR-RES ovarian
  GI50: 13.4 µM
  TGI: 35.8 µM
OVCAR-3 ovarian
  GI50: 11.6 µM
  TGI: 24.8 µM
OVCAR-4 ovarian
  GI50: 6.95 µM
  TGI: 20.8 µM
OVCAR-5 ovarian
  GI50: 10.4 µM
  TGI: 22.3 µM
OVCAR-8 ovarian
  GI50: 13.6 µM
  TGI: 28 µM
PC-3 prostate
  GI50: 7.91 µM
  TGI: 22.1 µM
RPMI-8226 leukemia
  GI50: 2.77 µM
  TGI: 7.82 µM
RXF 393 renal
  GI50: 3.68 µM
  TGI: 16 µM
SF-268 CNS
  GI50: 11.1 µM
  TGI: 26.6 µM
SF-295 CNS
  GI50: 8.33 µM
  TGI: 25.7 µM
SF-539 CNS
  GI50: 7.97 µM
  TGI: 21 µM
SK-MEL-2 melanoma
  GI50: 14 µM
  TGI: 27.2 µM
SK-MEL-28 melanoma
  GI50: 8.48 µM
  TGI: 20.8 µM
SK-MEL-5 melanoma
  GI50: 2.46 µM
  TGI: 6.53 µM
SK-OV-3 ovarian
  GI50: 12.4 µM
  TGI: 25.2 µM
SN12C renal
  GI50: 11.1 µM
  TGI: 23.6 µM
SNB-19 CNS
  GI50: 11.3 µM
  TGI: 23.5 µM
SNB-75 CNS
  GI50: 4.72 µM
  TGI: 18.1 µM
SR leukemia
  GI50: 2.08 µM
  TGI: 6.37 µM
SW-620 colon
  GI50: 5.63 µM
  TGI: 19.7 µM
T-47D breast
  GI50: 6.71 µM
  TGI: 24.8 µM
TK-10 renal
  GI50: 12.6 µM
  TGI: 25.3 µM
U251 CNS
  GI50: 5.99 µM
  TGI: 19.5 µM
UACC-257 melanoma
  GI50: 10.5 µM
  TGI: 23 µM
UACC-62 melanoma
  GI50: 8.6 µM
  TGI: 21 µM
UO-31 renal
  GI50: 4.62 µM
  TGI: 18.1 µM
